Assay results published in ChEMBL document CHEMBL1201862, “PubChem BioAssay data set” (2004).
One block for each compound: values may come before it. Activity calls are given as the source filed them.

Tests used:
[1] = molecular target: ADP-ribosylation factor GTPase-activating protein 1 (Rattus norvegicus, UniProt Q62848); assay: Fluorescence polarization-based biochemical high throughput dose response screening assay to identify inhibitors of ADP-ribosylation factor GTPase activating protein 1 (ARFGAP1).; assay type: functional
Chain of ADP-ribosylation factor GTPase-activating protein 1 (Q62848 whole entry): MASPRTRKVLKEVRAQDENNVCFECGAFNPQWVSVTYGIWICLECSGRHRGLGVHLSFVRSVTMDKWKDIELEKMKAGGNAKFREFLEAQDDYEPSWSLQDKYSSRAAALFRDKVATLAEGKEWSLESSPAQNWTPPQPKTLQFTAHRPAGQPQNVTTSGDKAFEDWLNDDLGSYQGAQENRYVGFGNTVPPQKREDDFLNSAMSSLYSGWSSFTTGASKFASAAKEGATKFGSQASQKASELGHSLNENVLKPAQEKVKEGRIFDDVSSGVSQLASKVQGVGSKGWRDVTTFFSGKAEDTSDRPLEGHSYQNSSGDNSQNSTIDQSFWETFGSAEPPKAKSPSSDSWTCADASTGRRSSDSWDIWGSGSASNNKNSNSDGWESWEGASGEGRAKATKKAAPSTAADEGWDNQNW

Protein Wnt-3a = Protein Wnt-3a (Mus musculus, UniProt P27467); assay: Wnt3a-driven reporter signaling inhibition, dose response, selectivity assay for Gli-SUFU antagonist project, Wnt-LIGHT cells, luminescence (AID 651570); assay type: functional; conditions: read-out: IC50_Mean;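 further: Wnt-LIGHT reporter cells stimulated with conditioned medium from Wnt3a-producing cells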
Chain of Protein Wnt-3a (P27467 whole entry): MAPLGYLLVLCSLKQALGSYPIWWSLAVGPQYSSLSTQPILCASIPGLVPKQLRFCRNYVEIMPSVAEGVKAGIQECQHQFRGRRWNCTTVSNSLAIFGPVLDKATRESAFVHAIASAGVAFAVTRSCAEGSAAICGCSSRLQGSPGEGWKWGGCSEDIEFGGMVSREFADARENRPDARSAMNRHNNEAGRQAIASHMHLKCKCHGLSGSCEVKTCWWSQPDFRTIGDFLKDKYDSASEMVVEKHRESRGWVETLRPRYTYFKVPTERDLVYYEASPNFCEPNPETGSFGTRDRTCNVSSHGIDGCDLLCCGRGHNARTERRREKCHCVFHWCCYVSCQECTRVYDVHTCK

[2] = molecular target: T1, Orexin/Hypocretin receptor type 1 (Homo sapiens, UniProt O43613); assay: Homogeneous Time Resolved Fluorescence (HTRF)-based cell-based high throughput dose response assay for antagonists of the orexin 1 receptor (OX1R; HCRTR1). [Related pubchem assays (depositor defined):AID434989, AID435008, AID463079, AID485270, AID492963, AID492964, AID492965, AID493232, AID504717, AID504718]; assay type: functional
T1 sequence (O43613 whole entry): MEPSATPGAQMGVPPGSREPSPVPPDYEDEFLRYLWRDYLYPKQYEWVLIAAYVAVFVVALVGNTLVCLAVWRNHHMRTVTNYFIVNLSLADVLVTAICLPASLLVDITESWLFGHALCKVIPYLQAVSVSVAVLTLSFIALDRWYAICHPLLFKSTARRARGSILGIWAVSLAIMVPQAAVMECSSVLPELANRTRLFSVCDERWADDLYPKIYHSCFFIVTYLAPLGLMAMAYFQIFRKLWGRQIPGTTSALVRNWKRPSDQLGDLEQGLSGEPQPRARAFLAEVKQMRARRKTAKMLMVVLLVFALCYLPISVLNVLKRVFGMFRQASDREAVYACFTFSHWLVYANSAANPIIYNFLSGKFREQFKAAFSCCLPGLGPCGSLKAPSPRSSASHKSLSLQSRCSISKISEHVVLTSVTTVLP

[3] = Luminescence Cell-Based Dose Retest to Confirm Inhibitors of Cancer Stem Cells. [Related pubchem assays (depositor defined):AID2717, AID2721]; assay type: functional; conditions: Homo sapiens
[4] = molecular target: T1, Orexin/Hypocretin receptor type 1; assay: Fluorescence-based cell-based high throughput dose response assay for antagonists of the orexin 1 receptor (OX1R; HCRTR1). [Related pubchem assays (depositor defined):AID434989, AID435008, AID463079, AID485270, AID492963, AID492964, AID492965, AID493232, AID504717, AID504718]; assay type: functional
Orexin receptor type 2 [5] = molecular target: T2, Orexin receptor type 2 (Homo sapiens, UniProt O43614); assay: Counterscreen assay for antagonists of the orexin 1 receptor (OX1R; HCRTR1): Fluorescence-based cell-based dose response assay for antagonists of the orexin 2 receptor (OX2R; HCRTR2), run by assay provider.; assay type: functional
T2 sequence (O43614 whole entry): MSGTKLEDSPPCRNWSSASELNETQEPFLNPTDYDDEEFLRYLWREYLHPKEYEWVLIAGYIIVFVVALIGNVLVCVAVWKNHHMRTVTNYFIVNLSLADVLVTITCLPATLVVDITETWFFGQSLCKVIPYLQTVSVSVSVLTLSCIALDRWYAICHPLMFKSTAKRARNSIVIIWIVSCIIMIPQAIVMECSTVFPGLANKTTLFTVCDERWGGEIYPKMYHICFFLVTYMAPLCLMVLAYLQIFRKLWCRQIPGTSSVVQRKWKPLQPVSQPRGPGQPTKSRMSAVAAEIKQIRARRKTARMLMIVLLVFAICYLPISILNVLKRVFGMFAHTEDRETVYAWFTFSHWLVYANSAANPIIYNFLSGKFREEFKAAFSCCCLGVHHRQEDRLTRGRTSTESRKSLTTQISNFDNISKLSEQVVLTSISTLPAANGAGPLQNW

[6] = (§1) Counterscreen for antagonists of the orexin 1 receptor (OX1R; HCRTR1): Fluorescence-based cell-based high throughput dose response assay to identify antagonists of the parental CHO cell line. [Related pubchem assays (depositor defined):AID434989, AID435008, AID463079, AID485270, AID492963, AID492964, AID492965, AID493232, AID504699, AID504701]; assay type: functional
CHO-K1 = assay: as §1, with “Homogeneous time resolved fluorescence (HTRF)-based” for “Fluorescence-based”, “cell-based” for “cell-based high throughput”, “CHO-K1” for “CHO”; assay type: functional; conditions: Cricetulus griseus;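 further: potency for inhibition of ATP-stimulated IP1 production as antagonists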
Orexin receptor type 2 [7] = molecular target: T2, Orexin receptor type 2; assay: Counterscreen assay for antagonists of the orexin 1 receptor (OX1R; HCRTR1): Homogeneous Time Resolved Fluorescence (HTRF)-based cell-based dose response assay for antagonists of the orexin 2 receptor (OX2R; HCRTR2), run by assay provider.; assay type: functional
[8] = molecular target: T3, Methionyl-tRNA synthetase, putative (Trypanosoma brucei brucei, UniProt Q38C91); assay type: functional, Trypanosoma brucei brucei strain 927/4 GUTat10.1
T3 sequence (Q38C91 whole entry): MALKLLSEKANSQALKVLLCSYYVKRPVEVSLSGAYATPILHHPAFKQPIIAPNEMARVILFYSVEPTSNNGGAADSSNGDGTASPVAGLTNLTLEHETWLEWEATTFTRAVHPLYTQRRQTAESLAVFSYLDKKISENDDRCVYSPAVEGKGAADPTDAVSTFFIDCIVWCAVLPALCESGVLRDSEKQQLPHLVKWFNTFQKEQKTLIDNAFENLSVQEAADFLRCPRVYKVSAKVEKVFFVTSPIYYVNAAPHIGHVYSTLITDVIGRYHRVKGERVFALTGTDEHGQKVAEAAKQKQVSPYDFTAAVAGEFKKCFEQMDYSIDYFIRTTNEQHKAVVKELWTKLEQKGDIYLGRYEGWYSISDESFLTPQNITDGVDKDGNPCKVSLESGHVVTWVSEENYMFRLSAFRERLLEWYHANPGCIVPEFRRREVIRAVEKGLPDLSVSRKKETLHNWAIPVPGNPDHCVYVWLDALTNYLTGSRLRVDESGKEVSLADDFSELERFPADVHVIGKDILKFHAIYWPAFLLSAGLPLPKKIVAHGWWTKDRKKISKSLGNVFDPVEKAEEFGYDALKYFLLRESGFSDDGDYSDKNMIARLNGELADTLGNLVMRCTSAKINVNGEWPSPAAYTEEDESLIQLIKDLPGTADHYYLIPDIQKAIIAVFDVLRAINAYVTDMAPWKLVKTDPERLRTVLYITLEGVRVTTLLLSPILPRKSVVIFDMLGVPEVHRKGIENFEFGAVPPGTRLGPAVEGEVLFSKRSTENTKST

[9] = molecular target: T3, Methionyl-tRNA synthetase, putative; assay type: functional, Trypanosoma brucei brucei strain 927/4 GUTat10.1; remark: listed apart in the source
[10] = molecular target: T4, Sentrin-specific protease 1 (Homo sapiens, UniProt Q9P0U3); assay: Dose response confirmation of small molecule inhibitors of the catalytic domain of the SUMO protease, SENP1 in a FRET assay.; assay type: functional; conditions: read-out: IC50_Mean
T4 sequence (Q9P0U3 whole entry): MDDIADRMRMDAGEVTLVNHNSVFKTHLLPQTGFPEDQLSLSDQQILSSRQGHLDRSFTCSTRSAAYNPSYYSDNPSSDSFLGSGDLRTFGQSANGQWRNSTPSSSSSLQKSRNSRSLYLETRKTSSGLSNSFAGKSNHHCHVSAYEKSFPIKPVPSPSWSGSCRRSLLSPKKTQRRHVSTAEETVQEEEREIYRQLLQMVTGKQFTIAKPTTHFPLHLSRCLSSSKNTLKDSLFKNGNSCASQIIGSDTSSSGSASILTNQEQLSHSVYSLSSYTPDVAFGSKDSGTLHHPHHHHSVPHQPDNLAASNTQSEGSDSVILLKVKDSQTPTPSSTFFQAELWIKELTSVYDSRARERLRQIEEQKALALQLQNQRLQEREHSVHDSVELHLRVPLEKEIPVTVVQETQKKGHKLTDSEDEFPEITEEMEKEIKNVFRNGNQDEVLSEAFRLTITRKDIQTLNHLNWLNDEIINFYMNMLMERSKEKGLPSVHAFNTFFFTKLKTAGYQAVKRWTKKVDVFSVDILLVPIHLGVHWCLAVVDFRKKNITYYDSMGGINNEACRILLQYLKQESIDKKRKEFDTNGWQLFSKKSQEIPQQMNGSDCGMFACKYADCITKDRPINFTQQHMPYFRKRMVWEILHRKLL

[11] = NIH-3T3 fibroblast cytotoxicity, dose response, cytotoxicity control, cell-based, fluorescence, Alamar Blue, secondary assay (AID 2327); assay type: functional;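 further: NIH-3T3 mouse fibroblasts cultured with fluconazole at 8 µg/mL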
[12] = Counterscreen for inhibitors of Trypanosoma brucei methionyl tRNA synthetase (MetRS): Luminescence-based cell-based high throughput dose response assay to identify compounds that are cytotoxic to Jurkat human T lymphocyte cells.; assay type: functional
[13] = molecular target: T4, Sentrin-specific protease 1; assay: potency of human SENP1 inhibitors, dose response, biochemical, kinetic FRET (AID 651697); assay type: functional; conditions: read-out: IC50_Mean
[14] = C. albicans growth with fluconazole, confirmation, fluorescence, retest (AID 2467); assay type: functional, cell-based
[15] = molecular target: T5, Rac GTPase-activating protein 1 (Homo sapiens, UniProt Q9H0H5); assay: MgcRacGAP GTPase-activating activity inhibitors, confirmation, biochemical, ADP Hunter fluorescence, primary and confirmatory (AID 624330); assay type: functional
T5 sequence (Q9H0H5 whole entry): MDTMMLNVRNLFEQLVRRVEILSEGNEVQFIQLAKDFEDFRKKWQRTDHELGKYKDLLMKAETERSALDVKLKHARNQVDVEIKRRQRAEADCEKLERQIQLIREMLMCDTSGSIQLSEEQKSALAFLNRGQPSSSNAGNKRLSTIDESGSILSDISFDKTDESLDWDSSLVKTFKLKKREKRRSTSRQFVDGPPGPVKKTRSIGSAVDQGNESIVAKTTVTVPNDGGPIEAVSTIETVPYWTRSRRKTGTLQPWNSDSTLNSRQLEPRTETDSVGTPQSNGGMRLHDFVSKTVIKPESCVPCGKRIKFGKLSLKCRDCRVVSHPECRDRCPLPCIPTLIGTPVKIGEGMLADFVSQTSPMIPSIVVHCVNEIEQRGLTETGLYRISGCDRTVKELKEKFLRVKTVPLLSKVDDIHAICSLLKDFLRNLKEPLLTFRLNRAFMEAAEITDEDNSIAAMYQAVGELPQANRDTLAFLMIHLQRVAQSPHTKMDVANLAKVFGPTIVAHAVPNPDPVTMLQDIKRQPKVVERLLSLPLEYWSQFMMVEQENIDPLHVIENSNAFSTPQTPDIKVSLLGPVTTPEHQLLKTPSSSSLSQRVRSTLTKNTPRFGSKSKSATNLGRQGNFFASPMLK

[16] = StAR promoter reporter inhibition counter-screen, dose response, counter-screen for LRH-1 inverse agonist project, cell-based, luminescence, luciferase reporter (AID 651969); assay type: functional
Steroidogenic factor 1 = Steroidogenic factor 1 (Homo sapiens, UniProt Q13285); assay: Counterscreen for inverse agonists of the liver receptor homolog-1 (LRH-1; NR5A2): Luminescence-based cell-based high throughput dose response assay to identify inverse agonists of the Steroidogenic Factor 1 Nuclear Receptor (SF1; NR5A1).; assay type: functional
Chain of Steroidogenic factor 1 (Q13285 whole entry): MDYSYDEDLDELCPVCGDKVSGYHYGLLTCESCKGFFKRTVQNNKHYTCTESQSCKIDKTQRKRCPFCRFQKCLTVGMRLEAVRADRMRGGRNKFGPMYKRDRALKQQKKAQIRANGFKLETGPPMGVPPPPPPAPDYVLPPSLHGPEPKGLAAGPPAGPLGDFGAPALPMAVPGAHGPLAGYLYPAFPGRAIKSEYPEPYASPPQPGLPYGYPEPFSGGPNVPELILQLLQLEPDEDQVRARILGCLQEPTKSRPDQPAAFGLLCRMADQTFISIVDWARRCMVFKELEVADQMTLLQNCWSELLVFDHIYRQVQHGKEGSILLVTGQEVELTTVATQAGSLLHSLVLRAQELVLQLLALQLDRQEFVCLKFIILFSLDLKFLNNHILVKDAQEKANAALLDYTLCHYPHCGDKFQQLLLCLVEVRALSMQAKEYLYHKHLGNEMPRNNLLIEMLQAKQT

[17] = molecular target: Nuclear receptor subfamily 5 group A member 2 (Homo sapiens, UniProt O00482); assay type: functional, cell-based;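 further: HEK293T cells transfected with LRH-1 and a StAR promoter luciferase reporter; potency for inhibitors that lower LRH-1 driven reporter light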
Chain of Nuclear receptor subfamily 5 group A member 2 (O00482 whole entry): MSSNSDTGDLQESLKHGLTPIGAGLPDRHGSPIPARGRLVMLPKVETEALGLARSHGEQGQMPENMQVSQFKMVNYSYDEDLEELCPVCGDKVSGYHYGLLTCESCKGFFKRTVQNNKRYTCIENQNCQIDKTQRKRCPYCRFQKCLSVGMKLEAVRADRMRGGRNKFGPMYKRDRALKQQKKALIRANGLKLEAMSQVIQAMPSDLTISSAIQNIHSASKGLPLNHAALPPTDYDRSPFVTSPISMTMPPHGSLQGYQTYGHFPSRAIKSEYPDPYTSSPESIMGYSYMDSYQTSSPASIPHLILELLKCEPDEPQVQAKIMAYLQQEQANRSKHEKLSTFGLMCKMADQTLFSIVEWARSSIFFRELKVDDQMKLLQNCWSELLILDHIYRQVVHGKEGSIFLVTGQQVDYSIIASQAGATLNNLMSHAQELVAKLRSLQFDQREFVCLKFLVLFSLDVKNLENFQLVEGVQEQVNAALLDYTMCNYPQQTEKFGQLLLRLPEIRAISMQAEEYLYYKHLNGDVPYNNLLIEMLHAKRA
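Wherever AC50 is given: cells exposed to compound for roughly 70 hours or longer before luminescence read.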

- IC50 [1]: 44.9 µM (inactive)
Structure (SMILES): COc1ccc2oc(C(=O)OCC(=O)N3CC(C)CC(C)C3)c(C)c2c1 (centres undefined)

- IC50 (Protein Wnt-3a): 13.2 µM (active)
Structure (SMILES): Cc1ccc(C)c([N+]2=C3CCCCN3C(O)(c3cccs3)C2)c1 (centres undefined)

Structure (SMILES): Cn1c2ccccc2c(=O)c2cc(C#Cc3ccccn3)ccc21
- IC50 [2]: 0.413 µM (active)
- AC50 [3]: 9.17 µM (active)
- IC50 [4]: 3.9 µM (active)
- IC50 (Orexin receptor type 2 [5]): > 88.8 µM (inactive)
- IC50 [6]: > 49.7 µM (inactive)
- IC50 (CHO-K1): > 66.2 µM (inactive)
- IC50 (Orexin receptor type 2 [7]): > 50 µM (inactive)

- IC50 (Protein Wnt-3a): 24.3 µM (inactive)
Structure (SMILES): CC(=O)c1ccc(N2CCN(c3ccc(C(F)(F)F)cn3)CC2)cc1

Structure (SMILES): Cc1c(C(=O)OCC(=O)NCCN2C(=O)CSC2=O)oc2c1ccc1ccccc12
- IC50 [2]: 1.23 µM (active)
- IC50 [4]: 6.78 µM (active)
- IC50 (Orexin receptor type 2 [5]): > 88.8 µM (inactive)
- IC50 [6]: > 49.7 µM (inactive)
- IC50 (CHO-K1): > 66.2 µM (inactive)
- IC50 (Orexin receptor type 2 [7]): > 50 µM (inactive)

Structure (SMILES): CCOc1cc(/C=C2\SC(=S)N(NS(=O)(=O)c3ccccc3)C2=O)ccc1O
- IC50 [8]: 122 µM (inactive)
- IC50 [9]: 41.8 µM (inactive)
- IC50 [10]: 2.41 µM (active)
- EC50 [11]: > 150 µM (inactive)
- IC50 [12]: 83.3 µM (inactive)
- IC50 [13]: 3.73 µM (active)
- EC50 [14]: 1.88 µM (active)

- IC50 [15]: 38.7 µM (active)
- IC50 [10]: 11.2 µM (active)
- IC50 [13]: 15.5 µM (active)
Structure (SMILES): COc1cc(/C=C2\SC(=Nc3c(C)n(C)n(-c4ccccc4)c3=O)NC2=O)ccc1O

Structure (SMILES): Fc1cccc(Nc2nc3ccccc3n3cnnc23)c1
- IC50 [2]: 2.03 µM (active)
- IC50 [4]: 7.59 µM (active)
- IC50 (Orexin receptor type 2 [5]): > 88.8 µM (inactive)
- IC50 [6]: > 49.8 µM (inactive)
- IC50 (CHO-K1): > 66.3 µM (inactive)
- IC50 (Orexin receptor type 2 [7]): 2.13 µM (active)

- IC50 [1]: 101 µM (inactive)
Structure (SMILES): C=CCNc1nc(NCCOC)c2sc(-c3ccccc3)cc2n1

Structure (SMILES): C[C@H](O)[C@@H]1CN2CCc3c([nH]c4ccccc34)[C@@H]2C[C@@H]1N(C)C(=O)Nc1cc(Cl)cc(Cl)c1
- IC50 [8]: 14.9 µM (inactive)
- IC50 [9]: 8.53 µM (active)
- IC50 [12]: 15.8 µM (inactive)

Structure (SMILES): CC(C)CC1(C)NC(=O)N(CC(=O)Nc2ccc3c(c2)OCCO3)C1=O (centres undefined)
- IC50 [16]: 35.9 µM (inactive)
- IC50 (Steroidogenic factor 1): 7.12 µM (active)
- IC50 [17]: 42.7 µM (inactive)
